Residues, ends and D or L forms follow the SMILES beside them. *: point of attachment. PhAc = O=C(Cc1ccccc1)*; NHNH2 = NN*
Row | SMILES | melting point
1 | FC(F)(F)c1cc(Br)cc(C(F)(F)F)n1 | 92 to 95 °C
2 | Cc1c(F)c(F)c(C(O)C#N)c(F)c1F (configuration not stated) | 124 °C
3 | CCCC12CCC3=C(CCc4cc(OC)ccc43)C1CCC21OCCO1 (configuration not stated) | 119 to 120 °C
4 | CC1C(c2ccccc2)OP(N)(=O)N1C (configuration not stated) | 170 to 172 °C
5 | COc1ccc2nc(C3=CCN(Cc4ccc(Cl)cc4)CC3)[nH]c2c1 | 203 to 205 °C
6 | CN(Cc1cn(C23CC4CC(CC(C4)C2)C3)nn1)Cc1cccs1 | 66 to 68 °C
7 | Cc1c(C#N)oc2c(-c3ccc(F)cc3)c(-c3ccc(S(N)(=O)=O)cc3)nn12 | 231 to 232 °C
8 | COc1cc2c(cc1OC)[C@@H]1CCCC[C@@H]1N=C2c1ccc(N(S(=O)(=O)c2ccc([N+](=O)[O-])cc2)S(=O)(=O)c2ccc([N+](=O)[O-])cc2)cc1 (racemic) | 234 °C
9 | C[C@H](NC(=O)c1c[nH]c2ncc(-c3cccs3)nc12)C(C)(C)C | 311 to 312 °C
10 | O=S(=O)(Cc1ccc(Cc2ccc(NC3=NCCN3)cc2)cc1)NCc1ccccc1 | 115 to 118 °C
11 | Cc1c(-c2ccccc2)[nH]c(=O)n1C1CCN(Cc2cccc(I)c2)CC1 | 269 to 271 °C
12 | CC(=O)CCCCOCCCc1ccc(N2CCCC2)cc1 | 30 to 31 °C
13 | O=C1C=C(c2ccccc2)S(=O)(=O)C(c2cccs2)=C1 | 162 to 164 °C
14 | Cc1nnc(-c2ccc3occ(-c4ccccn4)c3c2)o1 | 148 to 149 °C
15 | Nc1c(Br)cc(N=C2NCCN2)cc1Br | 152 to 153 °C
16 | NC(=O)[C@H]1CCCCCC[C@H](CS)C(=O)N1 (relative stereo) | 185 to 192 °C
17 | O=C1c2cc(OCc3ccc4ccccc4n3)ccc2CCC1Cc1ccccc1 (configuration not stated) | 117 to 118 °C
18 | CCOC(=O)C=CC(=CN)C(=O)OCC | 109 °C
19 | C=CC(=O)N[C@@H](C=O)[C@@H](O)[C@H](O)[C@H](O)CO | 124 to 125 °C
20 | Cn1c(=O)n(O)c(=O)c2cc(F)c(N3CCCC3)cc21 | > 250 °C
21 | CCCc1c(C(=O)OCC)[nH]c(CC)c1C | 73 to 74 °C
22 | NC(=Nc1ccc(-n2cccc2)c(CNC(=O)CCCCC2CCSS2)c1)c1cccs1 (configuration not stated) | 156 to 158 °C
23 | O=Cc1csc(NC(=O)OCC(Cl)(Cl)Cl)n1 | 188 to 190 °C
24 | COc1cc2[nH]c(=O)c(-c3csc(-c4ccncc4)n3)c(N)c2cc1OC | > 250 °C
25 | COc1ccc(-c2sc(C=NO)c(-c3cccc(OC)c3)c2C)cc1 | 122 to 141 °C

Row | SMILES | melting point
26 | Cc1ccccc1NC(=O)Nc1ccc(NC(=O)C(CC(=O)Nc2ccc(C(=O)O)cc2)c2ccccc2)cc1 (configuration not stated) | 169 °C
27 | CS(=O)(=O)c1cc2c(cc1O)CCNCC2 | 241 to 242 °C
28 | COCCO[C@@H]1c2ccn3c(Br)c(C)nc3c2N[C@H](c2ccccc2)[C@H]1O | 153 to 154 °C
29 | CC1(C)CCc2c(N3CCOCC3)nc3sc4c(NCc5ccco5)ncnc4c3c2C1 | 210 to 211 °C
30 | CC(=O)NC1C(Oc2nc[nH]c2C(N)=O)OC(COC(C)=O)C(OC(C)=O)C1OC(C)=O (configuration not stated) | 133 to 135 °C
31 | Cc1cc(C)c(S(=O)(=O)N(C)O)c(C)c1 | 83 to 84 °C
32 | CC=CC=C1SC(=S)N(CC(=O)O)C1=O | 216 to 218 °C
33 | Fc1ccc(CSc2nnc(-c3ccc4c(c3)CCO4)o2)cc1F | 138 to 139 °C
34 | Cc1ccc2c(c1C)OC(C)C(NNc1ncnc3c1ncn3C1OC(CO)C(O)C1O)C2 (configuration not stated) | 109 to 113 °C
35 | CC(C)C(=O)N(C(=O)OC(C)(C)C)C(CC(N)C(=O)OCc1ccccc1)C(N)=O (configuration not stated) | 112 to 113 °C
36 | CN(C)C1CCN(C2CCN(c3ncc4ncnc(Nc5ccc(F)c(Cl)c5)c4n3)CC2)CC1 | 160 to 165 °C
37 | O=C(NCCc1cccc2ccc(OC(c3ccccc3)c3ccccc3)cc12)C1CC1 | 109 to 111 °C
38 | CCCCCNC(=S)NC(Cc1ccc(OC)cc1)=Nc1ccccc1 | 125 to 126 °C
39 | CCCNc1nc2ccccn2c(=O)c1-c1ccc(NC2CCN(C(=O)OC(C)(C)C)C2)cc1 (configuration not stated) | 187 to 190 °C
40 | COc1cc(CN2CCC(=C3c4ccccc4CCn4ccnc43)CC2)cc(OC)c1OCc1ccc2ccccc2n1 | 215 °C
41 | C[C@@H](c1ccc(-c2ccc(=O)n(C)c2)cc1)N1CC[C@](CC(C)(C)O)(c2ccccc2)OC1=O | 180 to 181 °C
42 | CN(CCc1ccc(NS(C)(=O)=O)cc1)Cc1cc2cc(NS(C)(=O)=O)ccc2o1 | 177 to 179 °C
43 | COc1ccc(-c2ccnc3c(C(=O)c4cccs4)cnn23)cc1NC(=O)CC(C)C | 192 to 194 °C
44 | Cc1cc(C(C)(C)C)cc2c1OCC(/C=C/C=C/C=C/C(=O)O)=C2 | 225 to 227 °C
45 | FC(F)c1cc(-c2cccc(C(F)(F)F)c2)nc2ccnn12 | 127 °C
46 | Nc1ccc(C2=NC(O)C(=O)Nc3ccc(Cl)cc32)cc1 (configuration not stated) | > 350 °C
47 | Nc1ncccc1-c1nc2cc(-c3ccc(C(=O)O)o3)cnc2n1-c1ccc(CNC(=O)c2ccccc2)cc1 | 211 to 217 °C
48 | CCOC(=O)[C@H]1CCC(=O)[C@@H](n2nc(-c3c(-c4ccccc4)nn4ccccc34)ccc2=O)C1 (relative stereo) | 160 to 162 °C
49 | N#Cc1ccc(N2CCN(Cc3cnc4c(c3)NC(=O)[C@@H]3CCCN43)CC2)cc1 | 252 °C
50 | CC(Cc1ccc(OCCCCO)cc1)NCC(O)c1cccc(C(F)(F)F)c1 (configuration not stated) | 69 to 76 °C

Results, then the molecule that gave them:

Row | melting point | SMILES
51 | 189 to 190 °C | CC(=O)N1c2ccccc2CCc2ccc(C(=O)O)cc21
52 | 97 to 100 °C | O=C(O)CCCCCCCCN1NC(c2ccccc2)=C(c2ccccc2)NC1=O
53 | 121 to 123 °C | C#CCn1c2c(c(=O)n(-c3ccc(Cl)c(C(=O)OCC)c3)c1=O)CCC2
54 | 125 °C | NCCCNc1ccc(Cl)nn1
55 | 153 to 154 °C | NC(=O)c1cccc(-c2cccc3cc(Cc4cccc(C(F)(F)F)c4)sc23)c1
56 | 170 to 172 °C | CCCSc1ncc(C(C)C(=O)O)n1Cc1ccccc1Cl (configuration not stated)
57 | 232 to 233 °C | CSc1ncc(Oc2ccc(Cl)cc2)c(=O)[nH]1
58 | 182 to 184 °C | CCn1ncc2c3noc(-c4cccc(F)c4)c3cnc21
59 | 203 to 204 °C | O=C(CCl)Nc1ccc2c(c1NC(=O)c1ccc(C(F)(F)F)cc1)C(=O)c1ccccc1C2=O
60 | 116 °C | CCOc1cc(C)nc(-n2ccnc2)n1
61 | 113 to 115 °C | COc1cc(Cl)cc2c1OC(C)(COS(=O)(=O)c1ccc(C)cc1)C2 (configuration not stated)
62 | 357 to 358 °C | O=c1[nH]c2cc(Cl)ccc2c(O)c1-c1ccccc1Br
63 | 248 to 251 °C | CCOC(=O)C1=C(NC(C)=O)Oc2cc(O)ccc2C1c1cnc2ccccc2c1 (configuration not stated)
64 | 136 to 139 °C | COc1c(Cl)cc(C(C)(C)N2CC(C)=C(c3ccccc3)C2=O)cc1Cl
65 | 54 to 58 °C | COC(=O)c1ccc(OC)c(C(C)=O)c1
66 | 88 to 90 °C | N#Cc1cccnc1Oc1cccc(Cl)c1
67 | 196 to 198 °C | Cc1cc2nc(-c3ccc(F)cc3)cn2nc1Cl
68 | 230 to 232 °C | Cc1nc(NC(=O)c2cccc(OC(F)(F)F)c2)sc1C(=O)NCc1ccccc1
69 | 197 to 199 °C | COc1cc(OCCSC)ccc1-c1nc2ncccc2[nH]1
70 | 61 to 62 °C | CN1C[C@H](CCCl)Oc2ncccc2C1=O
71 | 42 to 43 °C | O=C(c1ccccc1)c1ccc(OCCCCBr)cc1
72 | 175 °C | Cc1cc(O)cc(C)c1-c1cccc(CO)c1
73 | 217 to 219 °C | c1cnn(Cc2ccc3c(c2)-c2[nH]nc(-c4ccsc4)c2C3)n1
74 | 88 to 90 °C | CN1CCN(c2ccc(F)cc2C=C2CCCN(CCc3ccc(Cl)cc3)C2=O)CC1
75 | 82 to 85 °C | COC(=O)C(C)N(C(=O)CCl)c1c(Cl)cccc1Cl (configuration not stated)
76 | 261 to 263 °C | O=C1CCC(N2Cc3cc(CNC(=O)Nc4ccc(Cl)c(C(F)(F)F)c4)ccc3C2=O)C(=O)N1 (configuration not stated)

Row | melting point | SMILES
77 | 224 to 227 °C | COc1ccc(OC2c3cc(C#N)ccc3OC(C)(C)C2O)nn1 (configuration not stated)
78 | 255 to 256 °C | Nc1ccc(N2CCCC2)c(S(=O)(=O)O)c1
79 | 98 to 100 °C | COc1ccc2c(c1)Sc1ccccc1CN2C=O
80 | 238 to 241 °C | O=c1cc[nH]c2c([N+](=O)[O-])cc(Cl)cc12
81 | 110 to 111 °C | Cc1cccc(C(N)=NO)c1C
82 | 260 to 261 °C | Nc1ccc(S(=O)(=O)c2cc(-c3cccc(Cl)c3)nc(N3CCCC3)c2)cc1
83 | 143 to 147 °C | CC(=O)N(C(C)=O)c1c(Cl)c(C)nn1C(CCN1C(=O)c2ccccc2C1=O)=NOS(=O)(=O)c1ccc(C)cc1
84 | 101 to 102 °C | CN1C(=O)c2cscc2N(C)c2ccccc21
85 | 69 to 70 °C | CS(=O)(=O)N(Cc1ccncc1)Cc1ccccc1F
86 | 146 to 147 °C | CC(=O)COc1cc(-c2ncc(C(F)(F)F)cc2Cl)ccc1C#N
87 | 85 to 87 °C | c1ccc(-c2ncnn2-c2ccccc2)cc1
88 | 48 to 50 °C | COCOc1c(OC)cc(C=O)c2cccc(C)c12
89 | 170 to 172 °C | CC(C)(C)C1NN(c2ccc(N)cc2Br)C(=O)O1 (configuration not stated)
90 | 160 to 162 °C | CCOC(=O)C1Oc2cccnc2NC1=O (configuration not stated)
91 | 226 to 230 °C | Cc1ncc2c(c1OCC(=O)O)COC2c1ccc(Cl)cc1 (configuration not stated)
92 | 83 to 85 °C | COC(=O)c1ccc(N)cc1C(=O)OC
93 | 142 to 143 °C | CC(NC(=O)C1CCCN1C(=O)Cc1ccccc1)C(=O)NN (stereo not drawn) (PhAc-Pro-Ala-NHNH2; configuration not given here)
94 | 299 to 302 °C | CCC1CC(=O)NN=C1c1ccc2nc(-c3ccncc3)[nH]c2c1 (configuration not stated)
95 | 95 °C | CC(C)(C)OC(=O)CN(C(=O)CNC(=O)c1ccc(Cl)c(Cl)c1)c1ccccc1
96 | > 230 °C | NS(=O)(=O)c1ccc(NN=C2C(=O)Nc3ccc(C(=O)NCCCn4ccnc4)cc32)cc1
97 | 172 to 174 °C | CNC(=O)c1cc2ccccc2c(-c2cccc(I)c2)n1
98 | 115 to 118 °C | O=C(CO)c1ccc(Cl)c(Cl)c1
99 | 96 to 99 °C | Nc1ccc(-c2ccccc2)cc1N
100 | 119 to 121 °C | COC(=O)c1ccc(I)c2c1Nc1ccccc1C2
101 | 349 to 350 °C | O=C(Nc1nccs1)c1cnc2ccccc2c1O
102 | 69 to 70 °C | COC(=O)c1c(C)nc(C)c(C(=O)OCC2CCCO2)c1-c1ccccc1[N+](=O)[O-] (configuration not stated)

— a melting point compilation (Tetko et al.; mined from patent text by program, amines drawn as free bases though some values may be those of a salt)
